One assay concerns the target T1, BMP-9 (Homo sapiens, UniProt Q9UK05).
T1 sequence (Q9UK05 320-429): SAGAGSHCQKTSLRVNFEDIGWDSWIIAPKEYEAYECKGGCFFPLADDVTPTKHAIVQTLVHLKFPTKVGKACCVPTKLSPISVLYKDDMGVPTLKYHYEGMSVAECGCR
In words: Small-scale BMP-9 ELISA with CHO supernatants. The assay is classed as binding. The settings on record: BMP-9 10 ng/mL. The protocol:
(§1) Small-scale testing of ActRIIB-ECD fusion proteins. Additional investigation of a series of exemplary agents was performed using proteins expressed in CHO cells. Briefly, DNA encoding the ActRIIB-ECD-Fc fusion constructs was transfected in cells seeded in 12-well plates in a final volume of 1 ml. After 7 days, the supernatant was harvested, clarified, and the amount of expressed protein in each well was quantified using standard methods. The potency of each agent for inhibition of activin A, BMP-9 and BMP-10 was determined in three separate assays.
The next day, the plate was washed three times. […] Expressed proteins in the supernatants were diluted 1 in 2 in assay diluent (0.5% BSA, 0.05% tween-20 in PBS) and 100 μl was added to the 96-well plate in technical duplicates. After a 1.5-hour incubation at RT, the plate was washed three times. […] In this assay, a loss of signal indicates less binding of the exemplary agent to BMP-9. Results are expressed as a % of the signal obtained with wild-type ActRIIB-Fc (P75).
Background: In an ELISA, binding on a coated surface is turned into a signal by an enzyme label.

Assay [1] concerns the target T2, BMP-10 (Homo sapiens, UniProt O95393).
T2 sequence (O95393 317-424): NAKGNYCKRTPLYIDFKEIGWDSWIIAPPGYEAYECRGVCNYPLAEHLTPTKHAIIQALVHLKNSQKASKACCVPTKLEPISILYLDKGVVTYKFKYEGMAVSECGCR
In words: BMP-10 binding by bio-layer interferometry (BLI). To be noted: single concentration 12.5 nM BMP-10. Here is the method: To determine potency on BMP-10, the same BMP-reporter cell line was used as described above. A final concentration of 2.5 nM of each expressed protein was tested in the presence of 40 ng/mL of BMP-10 (R&D #2926-BP). In this assay, a loss of signal indicates neutralization of BMP-10 by the exemplary agent. Results are expressed as a % of the signal obtained with the cytokine alone. A separate assay was used to estimate BMP-10 binding, using bio-layer interferometry (BLI) on a Gator® Plus instrument (Gator Bio, Palo Alto, USA). An anti-Human IgG Fc Gen II probe (#160024, Gator Bio) was loaded with expressed proteins in CHO supernatants, following which BMP-10 binding kinetics (single concentration, 12.5 nM) were assessed.
Background: In BLI a coated tip is dipped into the sample, and binding shifts an interference pattern.

Assay [2] has as its target T2, BMP-10. Put plainly: Small-scale BMP-10 BMP-reporter cell-based assay, single concentration. To be noted: […] protein, 40 ng/mL BMP-10. Here is the method: Characterization of the BMP-9 and BMP-10 inhibition potency (IC50) of the fusion proteins was performed using a second cell-based reporter assay. Human hepatic HepG2 cells were transfected with a SEAP-encoding plasmid, in which SEAP expression is under the control of the murine Id1 promoter. A stable pool was generated from this transfection. Cells were grown in EMEM, containing 10% heat-inactivated FBS and 200 μg/mL zeocin (hereafter, “HepG2 growth medium”). […] For all assays, cells were seeded in 96-well plates at a confluence of 100,000 cells per well in HepG2 growth medium. Cells were left to attach for 10 minutes at RT prior to being transferred to a 37° C. incubator (5% CO2) overnight. […] At the end of the incubation, absorbance was read at 650 nm. […]
Small-scale testing of ActRIIB-ECD fusion proteins. […] After 7 days, the supernatant was harvested, clarified, and the amount of expressed protein in each well was quantified using standard methods. The potency of each agent for inhibition of activin A, BMP-9 and BMP-10 was determined in three separate assays.
To determine potency on BMP-10, the same BMP-reporter cell line was used as described above. […] Results are expressed as a % of the signal obtained with the cytokine alone. […]

For the next assay, the target named is T3, activin A (Homo sapiens, UniProt P08476).
T3 sequence (P08476 311-426): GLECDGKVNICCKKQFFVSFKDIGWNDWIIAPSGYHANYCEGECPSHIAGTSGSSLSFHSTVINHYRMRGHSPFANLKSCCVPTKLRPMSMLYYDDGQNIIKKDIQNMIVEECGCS
In words: Small-scale activin A ELISA with CHO supernatants. To be noted: 1 μg/mL protein, 30 ng/mL activin A, loss of signal = binding. The protocol:
as §1
The next day, the plate was washed three times with buffer (Biolegend #421601). […] Expressed proteins in the supernatants described above were diluted to 2 μg/mL in assay diluent (0.5% BSA, 0.05% tween-20 in PBS), mixed 1:1 with recombinant human activin A (R&D #338-AC, 60 ng/mL, diluted in assay diluent). Complexes were immediately added to the 96-well plate in technical duplicates and incubated for 1 h at RT (concentration of expressed protein and activin A on the plate were 1 μg/mL and 30 ng/mL, respectively). […] In this assay, a loss of signal indicates binding of the exemplary agent to activin A, which prevents activin A binding to the anti-activin A antibody on the plate. Results are expressed as a % of the signal obtained with wild-type ActRIIB-Fc (P75).

The nature of assay [3]: Single subcutaneous injection in CD-1 mice: body weight. To be noted: CD-1 male mice, single s.c. injection; P1229 50 mg/kg, semaglutide 2 mg/kg. The assay is classed as in vivo.
For assay [4], the system named is follicle-stimulating hormone (FSH). Put plainly: Circulating FSH levels in CD-1 mice. The format is in vivo. The settings on record: single s.c. injection, P1229 50 mg/kg, semaglutide 2 mg/kg. Here is the method: Finally, circulating FSH levels were assessed throughout the study (FIG. 20D). […] This confirms that the expected pharmacodynamic effect of P1229 was not altered in the context of the co-formulation.

The next assay deals with DIO mice. Put plainly: Body composition in high fat diet mice, alone and in combination with incretin mimetics. The assay is classed as in vivo. The settings on record: for Fat mass (% change from baseline) / Lean mass (% change from baseline): as E44, NMR.
Assay [5] is described as follows: Coformulation of P1372 and semaglutide: weight and body composition in mice (FIG. 18). The assay is classed as in vivo.

Protocol for DIO mice: Experiments were performed in vivo to investigate the potential for additive or synergistic effects between exemplary ActRIIB-ECD polypeptide constructs and incretin mimetics.

“P444: WT hActRIIA, 3 aa linker (GGG), IgG1 Fc; SEQ ID 173 [reference compound]”: the “BMP-9 binding, ELISA signal relative to P75” value in the assay with BMP-9 was “near undetectable binding to BMP-9”. Moreover, in the assay with BMP-10 [1], the “BMP-10 KD by bio-layer interferometry” value is reported as “higher KD (lower affinity) than P75”. Besides, in the assay with BMP-10 [2], the “BMP-10 neutralization, signal relative to BMP-10 alone” value was “less neutralization (i.e., greater signal) than P75”. In addition, the “activin A binding, ELISA signal relative to P75” value with activin A is recorded as “comparable activin A binding profile to P75”.

Regarding semaglutide [reference compound], the body weight result in assay [3] is recorded as “decreased body weight”. For the same substance, in assay [4], the “decrease of circulating FSH levels” value is reported as “did not show a significant effect”. The “Body weight (% change from baseline)” value in the assay with DIO mice (DIO mice, 21 days s.c., P1307 20 mg/kg weekly, P1229 40 mg/kg twice weekly, semaglutide 40 μg/kg daily, tirzepatide 45 μg/kg daily, alone or combined) is −17.5%. In addition, in the assay with DIO mice (DIO mice, D21), the “visceral, epididymal, pericardial, peri-renal, and retroperitoneal white adipose tissue weights” value is on record as “significantly decreased all white adipose tissue weights”. Further, the “gastrocnemius and tibialis anterior weights” value in the assay with DIO mice (DIO mice, D21, P1229 with or without caloric restriction) was “no significant effect on muscle weights”. In the assay with DIO mice, the “Fat mass (% change from baseline)” value is −30.3% and the “Lean mass (% change from baseline)” value is given as −10.6%. In addition, in the assay with DIO mice (listed as semaglutide), the “Fat mass (% change from baseline)” value is on record as −30.3% and the “Lean mass (% change from baseline)” value is −10.6%. In addition, in assay [5] (3 weeks), the lean muscle mass result is listed as “significant loss of lean muscle mass”. Further, in assay [5] (3 weeks after treatment), the total weight loss result is reported as “significant weight loss”.

The values above are taken from patent publication US20260193317A1, “COMBINATION THERAPY WITH ACTRIIB RECEPTOR VARIANTS AND GLP-1 AGONISTS” (35PHARMA Inc., priority 2023, published 2026).
